According to patent publication US7250413B2, “C-25 carbamate rifamycin derivatives with activity against drug-resistant microbes” (Cumbre Pharmaceuticals Inc., priority 2004, dated 2007):
In brackets after ≈: the same amount, converted by molar mass. Read-outs that look alike come from different tables or passages of the source.

Assays:
Assay type in all cases: cell-based
[1] = test system: Staphylococcus aureus ATCC29213; assay: MIC, microbroth dilution; conditions: rifS, Cation-Adjusted Mueller-Hinton Broth, 37° C., read-out: MIC
In short: (§1)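 MICs by microbroth dilution following NCCLS guidelines, with all growth incubations at 37 °C. S. aureus strains grown in cation-adjusted Mueller-Hinton broth; H. influenzae in BHI broth with added NAD and hematin; M. smegmatis in Middlebrook broth plus ADC enrichment.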

[2] = test system: Enterococcus faecalis ATCC29212; assay: MIC, microbroth dilution; conditions: rifS, BHI Broth, 37° C., read-out: MIC
In short: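 Antimicrobial activity against E. faecalis was assessed as the MIC, using the microbroth dilution procedure described by NCCLS (2000) guidelines. BHI Broth served as the culture medium, and all incubations for growth were performed at 37° C rather than under the guideline's default conditions.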

[3] = test system: Mycobacterium smegmatis ATCC700084; assay: MIC, microbroth dilution
In short: as §1

[4] = test system: Streptococcus pyogenes ATCC19615; assay: MIC, microbroth dilution; conditions: rifS, THY Broth, 37° C.
[5] = test system: Escherichia coli ATCC25922; assay: MIC, microbroth dilution; conditions: rifS, Cation-Adjusted Mueller-Hinton Broth, 37° C.
[6] = test system: Haemophilus influenzae ATCC10211; assay: MIC, microbroth dilution
In short: as §1

[7] = test system: Staphylococcus epidermidis ATCC12228; assay: MIC, microbroth dilution; conditions: rifS, Cation-Adjusted Mueller-Hinton Broth, 37° C.
In short: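 Broth microdilution per NCCLS, 37 °C incubation. Media: cation-adjusted MHB (S. aureus, incl. rpoB mutant), BHI + NAD + hematin (H. influenzae), Middlebrook + ADC (M. smegmatis).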

[8] = test system: Streptococcus pneumoniae ATCC6303; assay: MIC, microbroth dilution; conditions: rifS, THY Broth supplemented with 1 mg/mL catalase under 5% CO2, 37° C.
[9] = test system: H. influenzae ATCC 10211 and E. coli ATCC 25922; assay: MIC, summary over Gram-negative bacteria
Procedure: (§2) Representative compounds were assayed for antimicrobial activity as follows: Minimum Inhibitory Concentrations (“MICs”) were determined by the microbroth dilution method as per NCCLS guidelines (National Committee for Clinical Laboratory Standards, 2000), except that all growth incubations were conducted at 37° C. Bacterial cultures were tested in the following bacteriological media: S. aureus, S. epidermidis, and E. coli in Cation-Adjusted Mueller-Hinton Broth, S. pneumoniae in THY Broth supplemented with 1 mg/mL catalase under 5% CO2 atmosphere, S. pyogenes in THY Broth, E. faecalis in BHI Broth, H. influenzae in BHI Broth supplemented with 0.75 μL of 1 mg/mL NAD and 150 μL of 1 mg/ml hematin per 5 mL, and M smegmatis in Middlebrook Broth plus ADC Enrichment.

[10] = test system: Staphylococcus aureus ATCC29213 rpoB^H418Y; assay: microbe, parasite or virus in culture
Procedure: as §2

[11] = test system: Staphylococcus aureus ATCC29213 rpoB^D417Y; assay: microbe, parasite or virus in culture
Procedure: as §2

[12] = MIC, summary over rifampin-susceptible Gram-positive strains; conditions: read-out: MICs
Procedure: as §2

[13] = Mycolicibacterium smegmatis, ATCC700084, rifS, Middlebrook Broth plus ADC Enrichment, 37° C., read-out: MIC

SMILES | MIC [1] [µg/mL] | MIC [2] [µg/mL] | MIC [3, 13] [µg/mL] | other results
COc1c(N2CCN(C(=O)CNC(=O)O[C@H]3[C@H](C)[C@H](O)[C@H](C)[C@@H](O)[C@@H](C)/C=C/C=C(/C)C(=O)NC4=C(N5CCOCC5)C(=O)c5c(c(O)c(C)c6c5C(=O)[C@@](C)(O/C=C/[C@H](OC)[C@H]3C)O6)C4=O)CC2)c(F)cc2c(=O)c(C(=O)O)cn(C3CC3)c12 [Example 64] | 0.002 to 1.95 (≈ 0.00169 to 1.65 µM) | 0.25 to 62 (≈ 0.211 to 52.4 µM) | 0.063 to 31 | 
COc1c(N2CCN(C(=O)C3CN(C(=O)O[C@H]4[C@H](C)[C@H](O)[C@H](C)[C@@H](O)[C@@H](C)/C=C/C=C(/C)C(=O)NC5=C(N6CCOCC6)C(=O)c6c(c(O)c(C)c7c6C(=O)[C@@](C)(O/C=C/[C@H](OC)[C@H]4C)O7)C5=O)C3)C(C)C2)c(F)cc2c(=O)c(C(=O)O)cn(C3CC3)c12 (stereo partly drawn) [Example 65] | 0.002 to 1.95 (≈ 0.00163 to 1.59 µM) | 0.25 to 62 (≈ 0.204 to 50.7 µM) | 0.063 to 31 | 
COc1c(N2CCN(C(=O)C3CN(C(=O)O[C@H]4[C@H](C)[C@H](O)[C@H](C)[C@@H](O)[C@@H](C)/C=C/C=C(/C)C(=O)NC5=C(N6CCOCC6)C(=O)c6c(c(O)c(C)c7c6C(=O)[C@@](C)(O/C=C/[C@H](OC)[C@H]4C)O7)C5=O)C3)CC2)c(F)cc2c(=O)c(C(=O)O)cn(C3CC3)c12 [Example 66] | 0.002 to 1.95 (≈ 0.00165 to 1.61 µM) | 0.25 to 62 (≈ 0.207 to 51.3 µM) | 0.063 to 31 | 
CO[C@H]1/C=C/O[C@@]2(C)Oc3c(C)c(O)c4c(c3C2=O)C(=O)C(N2CCOCC2)=C(NC(=O)/C(C)=C\C=C\[C@H](C)[C@H](O)[C@@H](C)[C@@H](O)[C@@H](C)[C@H](OC(=O)NC2CCN(c3c(F)cc5c(=O)c(C(=O)O)cn(C6CC6)c5c3Cl)C2)[C@@H]1C)C4=O (stereo partly drawn) [Example 67, 25-O-Desacetyl-(carbonyl-N-7-(3-amino-pyrrolidin-1-yl)-8-chloro-1-cyclopropyl-6-fluoro-4-oxo-1,4-dihydro-quinoline-3-carboxylic acid) 3-morpholino rifamycin S] | 0.002 to 1.95 (≈ 0.00177 to 1.72 µM) | 0.25 to 62 (≈ 0.221 to 54.8 µM) | 0.063 to 31 | 
CO[C@H]1/C=C/O[C@@]2(C)Oc3c(C)c(O)c4c(c3/C2=N/O)C(=O)C(N2CCOCC2)=C(NC(=O)/C(C)=C\C=C\[C@H](C)[C@H](O)[C@@H](C)[C@@H](O)[C@@H](C)[C@H](OC(=O)NC2CCN(c3c(F)cc5c(=O)c(C(=O)O)cn(C6CC6)c5c3Cl)C2)[C@@H]1C)C4=O (stereo partly drawn) [Example 68] | 0.002 to 1.95 (≈ 0.00175 to 1.7 µM) | 0.25 to 62 (≈ 0.218 to 54.1 µM) | 0.063 to 31 | 
CO[C@H]1/C=C/O[C@@]2(C)Oc3c(C)c(O)c4c(c3/C2=N/O)C(=O)C(N2CCOCC2)=C(NC(=O)/C(C)=C\C=C\[C@H](C)[C@H](O)[C@@H](C)[C@@H](O)[C@@H](C)[C@H](OC(=O)NCCN(C)C)[C@@H]1C)C4=O [Example 69] | 0.002 to 1.95 (≈ 0.0023 to 2.25 µM) | 0.25 to 62 (≈ 0.288 to 71.4 µM) | 0.063 to 31 | 
CO[C@H]1/C=C/O[C@@]2(C)Oc3c(C)c(O)c4c(O)c(c(/C=N/N5CCN(C)CC5)c(O)c4c3C2=O)NC(=O)/C(C)=C\C=C\[C@H](C)[C@H](O)[C@@H](C)[C@@H](O)[C@@H](C)[C@H](OC(C)=O)[C@@H]1C [rifampin] | 0.008 (≈ 0.00972 µM) | 0.98 (≈ 1.19 µM) | 64 | MIC [4]: 0.013 µg/mL (≈ 0.0158 µM); MIC [5]: 16 µg/mL (≈ 19.4 µM); MIC ([3]; mycobacterial strain M smegamatis ATCC 700084): 64 µg/mL (≈ 77.8 µM); MIC [6]: 0.24 µg/mL (≈ 0.292 µM); MIC [7]: 0.03 µg/mL (≈ 0.0365 µM); MIC [8]: 0.061 µg/mL (≈ 0.0741 µM); MIC [9]: 0.24 to 16 µg/mL (≈ 0.292 to 19.4 µM); MIC ([10]; ATCC29213, rifR, Cation-Adjusted Mueller-Hinton Broth, 37° C.): 7.8 µg/mL (≈ 9.48 µM); MIC ([10]; ATCC29213, text, rifampin-resistant strain S. aureus ATCC 29213 RpoB^H418Y): 8 µg/mL (≈ 9.72 µM); MIC ([11]; Staphylococcus aureus, ATCC29213): > 64 µg/mL; MIC ([11]; rifR, Cation-Adjusted Mueller-Hinton Broth, 37° C.): >64 µg/mL; MIC [12]: 0.03 to 1.3 µg/mL (≈ 0.0365 to 1.58 µM)
